Reference: article PMC8347595, “N-Skatyltryptamines—Dual 5-HT6R/D2R Ligands with Antipsychotic and Procognitive Potential” (Molecules, 2021)
Like-named read-outs stand apart in the source and are kept apart here.

Assays:
[1] = biological target: D2R (Homo sapiens, UniProt P14416); test: Radioligand binding assay, [3H]-raclopride displacement; settings: for Ki: pKi D2, Table 1
[2] = biological target: 5-HT6R (Homo sapiens, UniProt P50406); test: Radioligand binding assay, [3H]-LSD displacement
[3] = biological target: 5-HT2AR (Homo sapiens, UniProt P28223); test: Radioligand binding assay, [3H]-ketanserin displacement; parameters: host or cells: CHO-K1; membrane preparation; settings: Table 1
[4] = biological target: T1, 5-HT1AR (Homo sapiens, UniProt P08908); test: Radioligand binding assay, [3H]-8-OH-DPAT displacement
T1 sequence (P08908 1-422): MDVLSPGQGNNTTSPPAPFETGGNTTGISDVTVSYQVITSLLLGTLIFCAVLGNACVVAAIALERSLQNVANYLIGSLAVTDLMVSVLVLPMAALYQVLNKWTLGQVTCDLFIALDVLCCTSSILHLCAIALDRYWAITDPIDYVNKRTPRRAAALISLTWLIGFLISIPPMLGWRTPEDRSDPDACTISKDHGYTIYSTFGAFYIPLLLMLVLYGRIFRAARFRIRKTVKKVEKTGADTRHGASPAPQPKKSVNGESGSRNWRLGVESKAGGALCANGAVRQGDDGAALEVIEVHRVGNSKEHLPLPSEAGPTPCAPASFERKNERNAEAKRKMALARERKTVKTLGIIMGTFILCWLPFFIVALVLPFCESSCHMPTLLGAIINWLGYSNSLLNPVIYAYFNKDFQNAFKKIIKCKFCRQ

[5] = biological target: 5-HT7R (Homo sapiens, UniProt P34969); test: Radioligand binding assay, [3H]-5-CT displacement
[6] = read-out: pKi 5-HT2A (converted)

5-HT7R, sequence (P34969 1-432): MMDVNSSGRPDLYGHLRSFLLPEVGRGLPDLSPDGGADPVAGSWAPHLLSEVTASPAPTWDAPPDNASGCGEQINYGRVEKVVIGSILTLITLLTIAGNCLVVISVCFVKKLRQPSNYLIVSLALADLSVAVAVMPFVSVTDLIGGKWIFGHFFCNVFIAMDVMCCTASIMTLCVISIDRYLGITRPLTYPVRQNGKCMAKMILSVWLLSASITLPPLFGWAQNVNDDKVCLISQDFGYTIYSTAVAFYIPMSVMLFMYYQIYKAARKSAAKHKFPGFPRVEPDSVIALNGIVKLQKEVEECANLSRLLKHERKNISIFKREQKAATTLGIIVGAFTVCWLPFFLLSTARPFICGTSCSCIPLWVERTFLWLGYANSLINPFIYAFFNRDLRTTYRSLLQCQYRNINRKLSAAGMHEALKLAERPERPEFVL
5-HT6R, sequence (P50406 whole entry): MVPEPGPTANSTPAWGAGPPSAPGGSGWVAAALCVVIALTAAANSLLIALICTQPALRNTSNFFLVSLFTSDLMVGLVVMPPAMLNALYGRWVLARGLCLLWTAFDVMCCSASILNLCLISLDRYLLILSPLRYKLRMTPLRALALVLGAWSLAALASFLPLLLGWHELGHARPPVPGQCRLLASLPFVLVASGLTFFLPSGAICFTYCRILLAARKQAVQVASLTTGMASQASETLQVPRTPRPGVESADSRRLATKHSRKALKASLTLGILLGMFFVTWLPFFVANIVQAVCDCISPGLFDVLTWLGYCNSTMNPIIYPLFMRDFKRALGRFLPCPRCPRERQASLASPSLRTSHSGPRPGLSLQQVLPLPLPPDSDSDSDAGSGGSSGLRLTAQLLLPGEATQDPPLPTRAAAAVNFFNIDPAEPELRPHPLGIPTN
5-HT2AR, sequence (P28223 whole entry): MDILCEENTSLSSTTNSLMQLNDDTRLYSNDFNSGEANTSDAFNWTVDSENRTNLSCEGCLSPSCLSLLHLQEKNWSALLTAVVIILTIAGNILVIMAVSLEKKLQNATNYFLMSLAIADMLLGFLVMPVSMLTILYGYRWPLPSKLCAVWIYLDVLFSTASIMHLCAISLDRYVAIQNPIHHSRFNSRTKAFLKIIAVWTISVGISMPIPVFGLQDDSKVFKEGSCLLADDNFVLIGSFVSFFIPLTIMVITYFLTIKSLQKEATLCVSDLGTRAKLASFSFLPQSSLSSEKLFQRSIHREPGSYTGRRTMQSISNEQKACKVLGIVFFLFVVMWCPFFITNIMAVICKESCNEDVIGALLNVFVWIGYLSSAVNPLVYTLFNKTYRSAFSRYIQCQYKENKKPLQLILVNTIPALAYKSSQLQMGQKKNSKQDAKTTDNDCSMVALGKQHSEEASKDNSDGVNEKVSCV
D2R, sequence (P14416 whole entry): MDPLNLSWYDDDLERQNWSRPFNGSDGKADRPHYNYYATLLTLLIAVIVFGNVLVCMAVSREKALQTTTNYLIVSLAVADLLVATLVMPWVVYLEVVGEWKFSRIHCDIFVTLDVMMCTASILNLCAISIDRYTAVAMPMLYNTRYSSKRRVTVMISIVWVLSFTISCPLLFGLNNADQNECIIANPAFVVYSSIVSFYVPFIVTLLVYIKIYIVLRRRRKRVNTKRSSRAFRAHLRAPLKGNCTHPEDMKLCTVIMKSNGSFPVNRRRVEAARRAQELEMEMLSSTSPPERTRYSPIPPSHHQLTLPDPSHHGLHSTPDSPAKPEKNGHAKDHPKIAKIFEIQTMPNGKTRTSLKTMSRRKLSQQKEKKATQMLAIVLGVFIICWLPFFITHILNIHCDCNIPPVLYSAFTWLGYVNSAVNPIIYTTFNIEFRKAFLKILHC

| Compound | Ki [1] [nM] | Ki ([2]; pKi 5-HT6, Table 1) [nM] | Ki [3, 6] [nM] | Ki ([4]; pKi 5-HT1A, Table 1) [nM] | Ki [5] [nM] | Ki [4] [nM] | Ki ([2]; Ki 5-HT6, Figure 8) [nM] | Ki ([3]; pKi 5-HT2A) [nM] | pKi D2 ([1]; Table 1) | Ki ([4]; Ki 5-HT1AR) [nM] |
| --- | --- | --- | --- | --- | --- | --- | --- | --- | --- | --- |
| Clc1ccc2[nH]cc(CCNCc3c[nH]c4ccccc34)c2c1 [Compound 4] | 2450 | 107 | – | – | – | – | – | – | – | – |
| COc1ccc2[nH]cc(CCNCc3c[nH]c4cc(Cl)ccc34)c2c1 [Compound 21] | 1550 | 52.5 | 174 | 186 | 813 | – | – | – | – | – |
| Fc1ccc2[nH]cc(CNCCc3c[nH]c4ccccc34)c2c1 [Compound 10] | 8510 | 407 | 3470 | 490 | 4790 | – | – | – | – | – |
| COc1ccc2[nH]cc(CCNCc3c[nH]c4c(Cl)cccc34)c2c1 [Compound 20] | 2340 | 97.7 | 309 | – | 295 | 79.4 | – | – | – | – |
| Fc1cccc2c(CNCCc3c[nH]c4ccccc34)c[nH]c12 [Compound 16] | – | 316 | 1230 | 5620 | 12900 | – | – | – | – | – |
| Clc1ccc2c(CCNCc3c[nH]c4c(Cl)cccc34)c[nH]c2c1 [Compound 22] | 5010 | 363 | 4070 | 5620 | 13200 | – | – | – | – | – |
| Clc1cccc2c(CCNCc3c[nH]c4ccccc34)c[nH]c12 [Compound 7] | 11700 | 132 | 631 | 5130 | 25100 | – | 133 | – | – | – |
| c1ccc(COc2cccc3c(CNCCc4c[nH]c5ccccc45)c[nH]c23)cc1 [Compound 19] | 4070 | 302 | 2290 | 741 | 11200 | – | 303 | – | – | – |
| Clc1ccc2[nH]cc(CNCCc3c[nH]c4ccccc34)c2c1 [Compound 11] | 2090 | 513 | 3240 | 676 | 3800 | – | – | – | – | – |
| Fc1cccc2c(CCNCc3c[nH]c4ccccc34)c[nH]c12 [Compound 6] | 2950 | 170 | 380 | 2750 | 10200 | – | 168 | – | – | – |
| Cc1ccc2[nH]cc(CCNCc3c[nH]c4ccccc34)c2c1 [Compound 2] | > 10000 | 129 | 562 | 692 | 2950 | – | – | – | – | – |
| Oc1ccc2[nH]cc(CNCCc3c[nH]c4ccccc34)c2c1 [Compound 9] | 7590 | 2240 | 1950 | 2880 | 5130 | – | – | – | – | – |
| Brc1cccc2c(CCNCc3c[nH]c4ccccc34)c[nH]c12 [Compound 8] | 3020 | 162 | 776 | 6030 | 20400 | – | 161 | – | – | – |
| COc1ccc2[nH]cc(CCNCc3c[nH]c4ccccc34)c2c1 [Compound 3] | – | 117 | – | 155 | 562 | – | – | 83.2 | 6.49 | 156 |
| Ic1ccc2[nH]cc(CNCCc3c[nH]c4ccccc34)c2c1 [Compound 12] | 2090 | 457 | 2340 | 490 | 5130 | – | – | – | – | – |
